Source: patent US6358885B1, “Substituted phenylheterocyclic herbicides” (Mississippi State University, priority 1992, dated 2002)

Tests used:
Assay in all cases: Test G preemergence/postemergence greenhouse plant response rating 0 to 100
sandbur = format: in vivo, Cenchrus echinatus; conditions: 0 to 100 scale
From the text: (§1) Seeds, rhizomes, or plant parts of alfalfa (Medicago ativa), annual bluegrass (Poa annua), bermudagrass (Cynodon dactylon), broadleaf signalgrass (Brachiaria plantaginea), common purslane (Portulaca oleracea), common ragweed (Ambrosia elatior), […] (Paspalum dilatatum), goosegrass (Eleusine indica), guineagrass (Panicum maximum), […] exaltata), johnsongrass (Sorghum halepense), large crabgrass (Digitaria sanguinalis), peanut (Arachis hypoagaea), pitted morningglory (Ipomoea lacunosa), purple nutsedge (Cyperus rotundus), sandbur (Cenchrus echinatus), smooth crabgrass (Digitaria ischaemum) and yellow nutsedge (Cyperus esculentus) were planted into greenhouse pots containing greenhouse planting medium. Each pot contained only one plant species. The test compound was dissolved in a non-phytotoxic solvent and applied preemergence and/or postemergence to the plants. Preemergence applications were made within one day of planting the seeds or plant parts. Postemergence applications were applied when the plants were in the two to four leaf stage (three to twenty cm). Test chemicals were dissolved in a non-phytotoxic solvent and applied preemergence and postemergence to the plants. Untreated control plants and treated plants were placed in the greenhouse and visually evaluated for injury at 13 to 21 days after herbicide application. […] A dash (-) response indicates no test result.

guineagrass = format: in vivo, Panicum maximum; conditions: 0 to 100 scale
From the text: as §1

purple nutsedge = format: in vivo, Cyperus rotundus; conditions: Rate 125 g/ha, 0 to 100 scale
From the text: as §1

alfalfa = format: in vivo, Medicago ativa; conditions: 0 to 100 scale
From the text: as §1

common ragweed = format: in vivo, Ambrosia elatior; conditions: 0 to 100 scale
From the text: as §1

annual bluegrass = format: in vivo, Poa annua; conditions: 0 to 100 scale
From the text: as §1

itchgrass = format: in vivo, Rottboellia exaltata; conditions: 0 to 100 scale
From the text: as §1

broadleaf signalgrass = format: in vivo, Brachiaria plantaginea; conditions: 0 to 100 scale
From the text: as §1

goosegrass = format: in vivo, Eleusine indica; conditions: 0 to 100 scale
From the text: as §1

dallisgrass = format: in vivo, Paspalum dilatatum; conditions: 0 to 100 scale
From the text: as §1

common purslane = format: in vivo, Portulaca oleracea; conditions: 0 to 100 scale
From the text: as §1

johnsongrass = format: in vivo, Sorghum halepense; conditions: 0 to 100 scale
From the text: as §1

bermudagrass = format: in vivo, Cynodon dactylon; conditions: 0 to 100 scale
From the text: as §1

large crabgrass = format: in vivo, Digitaria sanguinalis; conditions: 0 to 100 scale
From the text: as §1

smooth crabgrass = format: in vivo, Digitaria ischaemum; conditions: 0 to 100 scale
From the text: as §1

pitted morningglory = format: in vivo, Ipomoea lacunosa; conditions: 0 to 100 scale
From the text: as §1

## Fc1cc(Cl)c(OCc2ccccc2)cc1-c1nn2c(c1Cl)CCCC2 [Compound 22]
sandbur; POSTEMERGENCE, Rate 125 g/ha
  Plant response rating, S. Sandbur: 0
sandbur; POSTEMERGENCE, Rate 250 g/ha
  Plant response rating, S. Sandbur: 0
sandbur; PREEMERGENCE, Rate 125 g/ha
  Plant response rating, S. Sandbur: 0
sandbur; PREEMERGENCE, Rate 250 g/ha
  Plant response rating, S. Sandbur: 0
guineagrass; POSTEMERGENCE, Rate 125 g/ha
  Plant response rating, Guineagrass: 0
guineagrass; POSTEMERGENCE, Rate 250 g/ha
  Plant response rating, Guineagrass: 0
guineagrass; PREEMERGENCE, Rate 125 g/ha
  Plant response rating, Guineagrass: 0
guineagrass; PREEMERGENCE, Rate 250 g/ha
  Plant response rating, Guineagrass: 0
Purple nutsedge; POSTEMERGENCE
  Plant response rating, Purple Nutsedge: 0
Purple nutsedge; PREEMERGENCE
  Plant response rating, Purple Nutsedge: 0
alfalfa; POSTEMERGENCE, Rate 125 g/ha
  Plant response rating, Alfalfa Var.: 0
alfalfa; POSTEMERGENCE, Rate 250 g/ha
  Plant response rating, Alfalfa Var.: 0
alfalfa; PREEMERGENCE, Rate 125 g/ha
  Plant response rating, Alfalfa Var.: 0
alfalfa; PREEMERGENCE, Rate 250 g/ha
  Plant response rating, Alfalfa Var.: 0
Common ragweed; POSTEMERGENCE, Rate 125 g/ha
  Plant response rating, Cmn Ragweed: 70
Common ragweed; POSTEMERGENCE, Rate 250 g/ha
  Plant response rating, Cmn Ragweed: 20
Common ragweed; PREEMERGENCE, Rate 125 g/ha
  Plant response rating, Cmn Ragweed: 0
Common ragweed; PREEMERGENCE, Rate 250 g/ha
  Plant response rating, Cmn Ragweed: 0
Annual bluegrass; POSTEMERGENCE, Rate 125 g/ha
  Plant response rating, Ann Bluegrass: 0
Annual bluegrass; POSTEMERGENCE, Rate 250 g/ha
  Plant response rating, Ann Bluegrass: 0
Annual bluegrass; PREEMERGENCE, Rate 125 g/ha
  Plant response rating, Ann Bluegrass: 0
Annual bluegrass; PREEMERGENCE, Rate 250 g/ha
  Plant response rating, Ann Bluegrass: 0
itchgrass; POSTEMERGENCE, Rate 125 g/ha
  Plant response rating, Itchgrass: 0
itchgrass; POSTEMERGENCE, Rate 250 g/ha
  Plant response rating, Itchgrass: 0
itchgrass; PREEMERGENCE, Rate 125 g/ha
  Plant response rating, Itchgrass: 0
itchgrass; PREEMERGENCE, Rate 250 g/ha
  Plant response rating, Itchgrass: 0
Broadleaf signalgrass; POSTEMERGENCE, Rate 125 g/ha
  Plant response rating, Brdlf Sgnlgrass: 0
Broadleaf signalgrass; POSTEMERGENCE, Rate 250 g/ha
  Plant response rating, Brdlf Sgnlgrass: 0
Broadleaf signalgrass; PREEMERGENCE, Rate 125 g/ha
  Plant response rating, Brdlf Sgnlgrass: 0
Broadleaf signalgrass; PREEMERGENCE, Rate 250 g/ha
  Plant response rating, Brdlf Sgnlgrass: 0
goosegrass; POSTEMERGENCE, Rate 125 g/ha
  Plant response rating, Goosegrass: 0
goosegrass; POSTEMERGENCE, Rate 250 g/ha
  Plant response rating, Goosegrass: 0
goosegrass; PREEMERGENCE, Rate 125 g/ha
  Plant response rating, Goosegrass: 0
goosegrass; PREEMERGENCE, Rate 250 g/ha
  Plant response rating, Goosegrass: 0
dallisgrass; POSTEMERGENCE, Rate 125 g/ha
  Plant response rating, Dallisgrass: 0
dallisgrass; POSTEMERGENCE, Rate 250 g/ha
  Plant response rating, Dallisgrass: 0
dallisgrass; PREEMERGENCE, Rate 125 g/ha
  Plant response rating, Dallisgrass: 0
dallisgrass; PREEMERGENCE, Rate 250 g/ha
  Plant response rating, Dallisgrass: 0
Common purslane; POSTEMERGENCE, Rate 125 g/ha
  Plant response rating, Cmn Purslane: 80
Common purslane; POSTEMERGENCE, Rate 250 g/ha
  Plant response rating, Cmn Purslane: 70
Common purslane; PREEMERGENCE, Rate 125 g/ha
  Plant response rating, Cmn Purslane: 0
Common purslane; PREEMERGENCE, Rate 250 g/ha
  Plant response rating, Cmn Purslane: 0
johnsongrass; POSTEMERGENCE, Rate 125 g/ha
  Plant response rating, Johnsongrass: 0
johnsongrass; POSTEMERGENCE, Rate 250 g/ha
  Plant response rating, Johnsongrass: 0
johnsongrass; PREEMERGENCE, Rate 125 g/ha
  Plant response rating, Johnsongrass: 0
johnsongrass; PREEMERGENCE, Rate 250 g/ha
  Plant response rating, Johnsongrass: 0
bermudagrass; POSTEMERGENCE, Rate 125 g/ha
  Plant response rating, Bermudagrass: 20
bermudagrass; POSTEMERGENCE, Rate 250 g/ha
  Plant response rating, Bermudagrass: 0
bermudagrass; PREEMERGENCE, Rate 125 g/ha
  Plant response rating, Bermudagrass: 0
bermudagrass; PREEMERGENCE, Rate 250 g/ha
  Plant response rating, Bermudagrass: 0
Large crabgrass; POSTEMERGENCE, Rate 125 g/ha
  Plant response rating, Large Crabgrass: 0
Large crabgrass; POSTEMERGENCE, Rate 250 g/ha
  Plant response rating, Large Crabgrass: 0
Large crabgrass; PREEMERGENCE, Rate 125 g/ha
  Plant response rating, Large Crabgrass: 0
Large crabgrass; PREEMERGENCE, Rate 250 g/ha
  Plant response rating, Large Crabgrass: 0
Smooth crabgrass; POSTEMERGENCE, Rate 125 g/ha
  Plant response rating, Smooth Crabgras: 0
Smooth crabgrass; POSTEMERGENCE, Rate 250 g/ha
  Plant response rating, Smooth Crabgras: 0
Smooth crabgrass; PREEMERGENCE, Rate 125 g/ha
  Plant response rating, Smooth Crabgras: 0
Smooth crabgrass; PREEMERGENCE, Rate 250 g/ha
  Plant response rating, Smooth Crabgras: 0
Pitted morningglory; POSTEMERGENCE, Rate 125 g/ha
  Plant response rating, Pit Morninglory: 20
Pitted morningglory; POSTEMERGENCE, Rate 250 g/ha
  Plant response rating, Pit Morninglory: 0
Pitted morningglory; PREEMERGENCE, Rate 125 g/ha
  Plant response rating, Pit Morninglory: 0
Pitted morningglory; PREEMERGENCE, Rate 250 g/ha
  Plant response rating, Pit Morninglory: 0
